From ChEMBL document CHEMBL4425168, “Dehydrozingerone Inspired Styryl Hydrazine Thiazole Hybrids as Promising Class of Antimycobacterial Agents” (ACS Med Chem Lett, 2016)
Converted amounts (≈) assume the structure as drawn.

Legend:
[1] = tested on: Mycobacterium tuberculosis; test: Antitubercular activity against Mycobacterium tuberculosis H37Rv after 7 days by broth macrodilution assay; type: functional; conditions: 168 h
[2] = tested on: Mycobacterium tuberculosis; test: Antitubercular activity against Mycobacterium tuberculosis H37Rv by microplate Alamar blue assay; type: functional
[3] = tested on: Mycobacterium tuberculosis; test: Antitubercular activity against Mycobacterium tuberculosis H37Rv assessed as bacterial growth inhibition in aerobic conditions by dual read out fluorescence assay; type: functional
[4] = tested on: Mycobacterium tuberculosis; test: Antitubercular activity against Mycobacterium tuberculosis H37Rv assessed as bacterial growth inhibition under aerobic conditions after 5 days by dual read-out fluorescence assay; type: functional, organism-based; conditions: 120 h
[5] = tested on: Mycobacterium tuberculosis; test: Antitubercular activity against oxygen-deprived Mycobacterium tuberculosis H37Rv assessed as bacterial growth inhibition preincubated for 10 days under anaerobic conditions followed by incubation under aerobic conditions for 28 hrs by LOR assay; type: functional, organism-based
[6] = tested on: Mycobacterium tuberculosis; test: Antitubercular activity against Mycobacterium tuberculosis H37Rv INH-R2 ATCC 35822 after 5 days; type: functional, organism-based
[7] = tested on: Mycobacterium tuberculosis; test: Antitubercular activity against Mycobacterium tuberculosis H37Rv RIF-R2 ATCC 35828 after 5 days; type: functional, organism-based; conditions: H37Rv RIF-R2 ATCC 35828, 120 h
[8] = tested on: Mycobacterium tuberculosis; test: Antitubercular activity against oxygen-deprived Mycobacterium tuberculosis H37Rv assessed as bacterial growth inhibition incubated for 5 days under aerobic conditions by LOR assay; type: functional, organism-based; conditions: 120 h
[9] = tested on: Mycobacterium tuberculosis; test: Antitubercular activity against Mycobacterium tuberculosis H37Rv expressing luxABCDE infected in differentiated human THP1 cells assessed as reduction in bacteria infected cells after 72 hrs by luminescence assay; type: functional, organism-based; conditions: THP-1, 72 h
THP-1 = test: Cytotoxicity in differentiated human THP1 cells assessed as reduction in cell viability after 3 days by CellTiter-Glo assay; type: cell-based; conditions: THP-1, 72 h
Mycobacterium avium = test: Antibacterial activity against Mycobacterium avium assessed as reduction in bacterial metabolic activity after 5 days by Alamar blue assay; type: functional; conditions: 120 h
[10] = tested on: Mycobacterium tuberculosis; test: Bactericidal activity against replicating Mycobacterium tuberculosis H37Rv assessed as reduction in colony forming units incubated for 21 days; type: functional; conditions: 504 h
[11] = tested on: Mycobacteroides abscessus; test: Antibacterial activity against Mycobacterium abscessus assessed as bacterial growth inhibition after 3 days by MABA method; type: functional; conditions: 72 h
[12] = tested on: Mycobacterium tuberculosis; test: Antitubercular activity against Mycobacterium tuberculosis H37Rv by radiometric assay; type: functional
[13] = Mycobacterium tuberculosis, H37Rv INH-R2 ATCC 35822, 120 h

| SMILES | MIC [4] | IC50 [6, 13] | IC90 [6, 13] | MIC [6, 13] | IC50 [7] | IC90 [7] | MIC [7] | further results |
| --- | --- | --- | --- | --- | --- | --- | --- | --- |
| COC(=O)c1nc(N)sc1Cc1ccccc1 | – | – | – | – | – | – | – | MIC [1]: 0.06 µg/mL (≈ 0.242 µM) |
| CC(=O)c1nc(/C=C/c2ccccc2)c2ncn(Cc3ccccc3)c2n1 | – | – | – | – | – | – | – | MIC [2]: 6.25 µM (≈ 2.22 µg/mL) |
| COc1ccc(-c2csc(N/N=C/c3ccc4c(c3)c3ccccc3n4C)n2)cc1OC | – | – | – | – | – | – | – | MIC [3]: 21 µM (≈ 9.29 µg/mL) |
| COc1ccc(/C=C/C(C)=N/Nc2nc(-c3cc(F)ccc3O)cs2)cc1OC | 1.5 to 200 µM (≈ 0.62 to 82.7 µg/mL) | – | – | – | – | – | – | – |
| COc1ccc(/C=C/C(C)=N/Nc2nc(-c3ccc(N)cc3)cs2)cc1OC | 1.5 to 200 µM (≈ 0.592 to 78.9 µg/mL) | 0.38 µM | 1.7 µM | 1.5 µM (≈ 0.592 µg/mL) | 0.76 µM | 9.2 µM | 6.3 µM (≈ 2.49 µg/mL) | IC50 [5]: 0.063 µM; MIC [5]: 46 µM (≈ 18.1 µg/mL); IC50 [8]: 0.097 µM; MIC [8]: 0.28 µM (≈ 0.11 µg/mL); IC50 [9]: < 0.098 µM; IC50 (THP-1): 11 µM; MIC (Mycobacterium avium): 100 µM (≈ 39.5 µg/mL); MBC [10]: 12 µM (≈ 4.73 µg/mL) |
| COc1ccc(/C=C/C(C)=N/Nc2nc(-c3ccc(C)cc3)cs2)cc1OC | 1.5 to 200 µM (≈ 0.59 to 78.7 µg/mL) | – | – | – | – | – | – | – |
| COc1ccc(/C=C/C(C)=N/Nc2nc(-c3ccc(Cl)c(Cl)c3)cs2)cc1OC | > 200 µM | – | – | – | – | – | – | – |
| COc1ccc(/C=C/C(C)=N/Nc2nc(-c3cccc(C(F)(F)F)c3)cs2)cc1OC | > 200 µM | – | – | – | – | – | – | – |
| COc1ccc(/C=C/C(C)=N/NC(N)=S)cc1OC | 1.5 to 200 µM (≈ 0.419 to 55.9 µg/mL) | 0.79 µM | 2.9 µM | 2.5 µM (≈ 0.698 µg/mL) | 1.2 µM | 5.9 µM | 4.8 µM (≈ 1.34 µg/mL) | IC50 [5]: 0.19 µM; MIC [5]: 29 µM (≈ 8.1 µg/mL); IC50 [4]: 0.98 µM; IC50 [8]: 0.15 µM; MIC [8]: 0.5 µM (≈ 0.14 µg/mL); IC50 [9]: < 0.098 µM; IC50 (THP-1): 11 to 50 µM; MIC [11]: > 200 µM; MIC (Mycobacterium avium): > 200 µM; MBC [10]: 6 µM (≈ 1.68 µg/mL) |
| COc1ccc(/C=C/C(C)=N/Nc2nc(-c3ccc(OC)c(OC)c3)cs2)cc1OC | 16 µM (≈ 7.03 µg/mL) | 7.1 µM | 12 µM | 13 µM (≈ 5.71 µg/mL) | 19 µM | > 200 µM | 46 µM (≈ 20.2 µg/mL) | IC50 [4]: 7.4 µM; IC50 (THP-1): 38 µM; MIC [11]: > 200 µM; MIC (Mycobacterium avium): > 200 µM |
| COc1ccc(-c2csc(N/N=C(C)/C=C/c3ccc(OC)c(OC)c3)n2)cc1 | 15 µM (≈ 6.14 µg/mL) | 8 µM | > 50 µM | 12 µM (≈ 4.91 µg/mL) | 8.7 µM | > 50 µM | 31 µM (≈ 12.7 µg/mL) | IC50 [4]: 8.4 µM; IC50 (THP-1): 11 to 50 µM; MIC [11]: > 200 µM; MIC (Mycobacterium avium): > 200 µM |
| COc1ccc(/C=C/C(C)=N/Nc2nc(-c3ccccc3O)cs2)cc1OC | 40 µM (≈ 15.8 µg/mL) | – | – | – | – | – | – | IC50 [4]: 24 µM |
| COc1ccc(/C=C/C(C)=N/Nc2nc(-c3ccccc3)cs2)cc1OC | 1.5 to 200 µM (≈ 0.569 to 75.9 µg/mL) | – | – | – | – | – | – | – |
| COc1ccc(/C=C/C(C)=N/Nc2nc(-c3c(OC)cccc3OC)cs2)cc1OC | 28 µM (≈ 12.3 µg/mL) | 5.6 µM | > 25 µM | 19 µM (≈ 8.35 µg/mL) | 10 µM | > 25 µM | 41 µM (≈ 18 µg/mL) | IC50 [4]: 6.6 µM; IC50 (THP-1): 11 to 50 µM; MIC [11]: > 100 µM; MIC (Mycobacterium avium): > 100 µM |
| O=[N+]([O-])c1ccc2nc(-c3ccccc3-c3nnc(/C=C/c4ccccc4)o3)[nH]c2c1 | – | – | – | – | – | – | – | MIC [12]: 12.5 µg/mL (≈ 30.5 µM) |
| COc1ccc(/C=C/C(C)=N/Nc2nc(-c3ccc(Br)cc3)cs2)cc1OC | > 200 µM | – | – | – | – | – | – | – |
| COc1ccc(/C=C/C(C)=N/Nc2nc(-c3ccc([N+](=O)[O-])cc3)cs2)cc1OC | > 200 µM | – | – | – | – | – | – | – |
| COc1ccc(O)c(-c2csc(N/N=C(C)/C=C/c3ccc(OC)c(OC)c3)n2)c1 | 88 µM (≈ 37.4 µg/mL) | – | – | – | – | – | – | IC50 [4]: 23 µM |
| COc1ccc(/C=C/C(C)=N/Nc2nc(-c3cc(Br)ccc3O)cs2)cc1OC | 1.5 to 200 µM (≈ 0.712 to 94.9 µg/mL) | – | – | – | – | – | – | – |
| COc1ccc(/C=C/C(C)=N/Nc2nc(-c3ccc(Cl)cc3)cs2)cc1OC | 1.5 to 200 µM (≈ 0.621 to 82.8 µg/mL) | – | – | – | – | – | – | – |
| NNC(=O)c1ccncc1 [ISONIAZID] | – | > 200 µM | > 200 µM | > 200 µM | 0.54 µM | 0.6 µM | 0.62 µM (≈ 0.085 µg/mL) | – |
| C[C@H]1COc2c(N3CCN(C)CC3)c(F)cc3c(=O)c(C(=O)O)cn1c23.C[C@H]1COc2c(N3CCN(C)CC3)c(F)cc3c(=O)c(C(=O)O)cn1c23.O [LEVOFLOXACIN] | – | 0.84 µM | 1.4 µM | 1.4 µM | 0.6 µM | 1.2 µM | 1.1 µM | – |
| CO[C@H]1/C=C/O[C@@]2(C)Oc3c(C)c(O)c4c(O)c(c(/C=N/N5CCN(C)CC5)c(O)c4c3C2=O)NC(=O)/C(C)=C\C=C\[C@H](C)[C@H](O)[C@@H](C)[C@@H](O)[C@@H](C)[C@H](OC(C)=O)[C@@H]1C [RIFAMPIN] | 1.5 to 200 µM (≈ 1.23 to 165 µg/mL) | 0.0047 µM | – | 0.0065 µM (≈ 0.00535 µg/mL) | > 50 µM | > 50 µM | > 50 µM | IC90 [6]: 0.012 µM; MIC (Mycobacterium avium): 0.1 µM (≈ 0.0823 µg/mL) |
